Results: ChEMBL document CHEMBL3046133, “Susceptibility of field populations of Spodoptera litura (Fabricius) (Lepidoptera: Noctuidae) in China to chlorantraniliprole and the activities of detoxification enzymes” (2012)

Assays:
Type in all cases: functional
[1] = system: Spodoptera litura; test: Resistance factor, ratio of LC50 for third to fifth-instar larval stage of Spodoptera litura field strain SH10 to LC50 for larval stage of Spodoptera litura laboratory strain XW-Sus
[2] = system: Spodoptera litura; test: Insecticidal activity against third to fifth-instar larval stage of Spodoptera litura field strain HF08 assessed as mortality after 72 hr by diet incorporation bioassay
[3] = system: Spodoptera litura; test: Insecticidal activity against second to fifth-instar larval stage of Spodoptera litura field strain DG10 assessed as mortality after 72 hr by diet incorporation bioassay
[4] = system: Spodoptera litura; test: Insecticidal activity against third to fifth-instar larval stage of Spodoptera litura field strain SH10 assessed as mortality after 72 hr by diet incorporation bioassay
[5] = system: Spodoptera litura; test: Insecticidal activity against third to fifth-instar larval stage of Spodoptera litura field strain NJ09 assessed as mortality after 72 hr by diet incorporation bioassay
[6] = system: Spodoptera litura; test: Insecticidal activity against third to fifth-instar larval stage of Spodoptera litura field strain HX09 assessed as mortality after 72 hr by diet incorporation bioassay
[7] = system: Spodoptera litura; test: Resistance factor, ratio of LC50 for third to fifth-instar larval stage of Spodoptera litura field strain HF10 to LC50 for larval stage of Spodoptera litura laboratory strain XW-Sus
[8] = system: Spodoptera litura; test: Resistance factor, ratio of LC50 for third to fifth-instar larval stage of Spodoptera litura field strain NN10 to LC50 for larval stage of Spodoptera litura laboratory strain XW-Sus
[9] = system: Spodoptera litura; test: Insecticidal activity against larval stage of Spodoptera litura laboratory strain XW-Sus assessed as mortality after 72 hr by diet incorporation bioassay
[10] = system: Spodoptera litura; test: Resistance factor, ratio of LC50 for third to fifth-instar larval stage of Spodoptera litura field strain HH09 to LC50 for larval stage of Spodoptera litura laboratory strain XW-Sus
[11] = system: Spodoptera litura; test: Insecticidal activity against third to fifth-instar larval stage of Spodoptera litura field strain NJ10 assessed as mortality after 72 hr by diet incorporation bioassay
[12] = system: Spodoptera litura; test: Insecticidal activity against third to fifth-instar larval stage of Spodoptera litura field strain NN10 assessed as mortality after 72 hr by diet incorporation bioassay
[13] = system: Spodoptera litura; test: Insecticidal activity against second to fifth-instar larval stage of Spodoptera litura field strain ZZ10 assessed as mortality after 72 hr by diet incorporation bioassay
[14] = system: Spodoptera litura; test: Resistance factor, ratio of LC50 for second to fifth-instar larval stage of Spodoptera litura field strain HZ10 to LC50 for larval stage of Spodoptera litura laboratory strain XW-Sus
[15] = system: Spodoptera litura; test: Resistance factor, ratio of LC50 for third to fifth-instar larval stage of Spodoptera litura field strain HX09 to LC50 for larval stage of Spodoptera litura laboratory strain XW-Sus
[16] = system: Spodoptera litura; test: Resistance factor, ratio of LC50 for third to fifth-instar larval stage of Spodoptera litura field strain NJ10 to LC50 for larval stage of Spodoptera litura laboratory strain XW-Sus
[17] = system: Spodoptera litura; test: Resistance factor, ratio of LC50 for third to fifth-instar larval stage of Spodoptera litura field strain NJ09 to LC50 for larval stage of Spodoptera litura laboratory strain XW-Sus
[18] = system: Spodoptera litura; test: Insecticidal activity against second to fifth-instar larval stage of Spodoptera litura field strain HZ10 assessed as mortality after 72 hr by diet incorporation bioassay
[19] = system: Spodoptera litura; test: Resistance factor, ratio of LC50 for third to fifth-instar larval stage of Spodoptera litura field strain HF08 to LC50 for larval stage of Spodoptera litura laboratory strain XW-Sus
[20] = system: Spodoptera litura; test: Insecticidal activity against third to fifth-instar larval stage of Spodoptera litura field strain HH09 assessed as mortality after 72 hr by diet incorporation bioassay
[21] = system: Spodoptera litura; test: Resistance factor, ratio of LC50 for second to fifth-instar larval stage of Spodoptera litura field strain SZ10 to LC50 for larval stage of Spodoptera litura laboratory strain XW-Sus
[22] = system: Spodoptera litura; test: Insecticidal activity against third to fifth-instar larval stage of Spodoptera litura field strain HF10 assessed as mortality after 72 hr by diet incorporation bioassay
[23] = system: Spodoptera litura; test: Insecticidal activity against second to fifth-instar larval stage of Spodoptera litura field strain SZ10 assessed as mortality after 72 hr by diet incorporation bioassay
[24] = system: Spodoptera litura; test: Resistance factor, ratio of LC50 for second to fifth-instar larval stage of Spodoptera litura field strain ZZ10 to LC50 for larval stage of Spodoptera litura laboratory strain XW-Sus
[25] = system: Spodoptera litura; test: Resistance factor, ratio of LC50 for second to fifth-instar larval stage of Spodoptera litura field strain DG10 to LC50 for larval stage of Spodoptera litura laboratory strain XW-Sus

## CNC(=O)c1cc(Cl)cc(C)c1NC(=O)c1cc(Br)nn1-c1ncccc1Cl [CHLORANTRANILIPROLE]
[1]
  RatioLC50: 11.2
[2]
  LC50: 71.58 ugAi/L
  LC90: 386.57 ugAi/L
[3]
  LC50: 98.81 ugAi/L
  LC90: 358.16 ugAi/L
[4]
  LC50: 47.17 ugAi/L
  LC90: 133.09 ugAi/L
[5]
  LC50: 28.41 ugAi/L
  LC90: 108.24 ugAi/L
[6]
  LC50: 100.3 ugAi/L
  LC90: 431.76 ugAi/L
[7]
  RatioLC50: 17.9
[8]
  RatioLC50: 7.8
[9]
  LC50: 4.2 ugAi/L
  LC90: 17.82 ugAi/L
[10]
  RatioLC50: 9.4
[11]
  LC50: 37.78 ugAi/L
  LC90: 156.29 ugAi/L
[12]
  LC50: 32.85 ugAi/L
  LC90: 81.75 ugAi/L
[13]
  LC50: 78.89 ugAi/L
  LC90: 269.74 ugAi/L
[14]
  RatioLC50: 19.2
[15]
  RatioLC50: 23.8
[16]
  RatioLC50: 9
[17]
  RatioLC50: 6.8
[18]
  LC50: 80.41 ugAi/L
  LC90: 296.76 ugAi/L
[19]
  RatioLC50: 16.9
[20]
  LC50: 39.54 ugAi/L
  LC90: 132.55 ugAi/L
[21]
  RatioLC50: 24.4
[22]
  LC50: 75.51 ugAi/L
  LC90: 262.61 ugAi/L
[23]
  LC50: 102.48 ugAi/L
  LC90: 354.52 ugAi/L
[24]
  RatioLC50: 18.9
[25]
  RatioLC50: 23.3
